Results on five compounds are retold here after patent US10925286B2, “Synergistic chalcone containing composition of a nematicide” (TELLURIS BIOTECH INDIA PRIVATE LIMITED, priority 2017, dated 2021).

Test [1] deals with M. incognita eggs. As to the kind of experiment: Egg hatching experiment, 96-well plate, 10 eggs per well, 16 days. The class given is in vivo, Meloidogyne incognita. The text has this: (§1) Tomato plants were inoculated with M. incognita juveniles and maintained in a growth chamber. After at least two months, the M. incognita eggs were extracted from the roots for experiments. The procedure followed for extracting M. incognita eggs is explained below.
(§2) The root tissues were either chopped by hand using a surgical blade and a watch glass, or it was chopped up using a food processor. The chopped tissue was then placed in a bottle and washed with a 10% dilution of bleach. Under sterile conditions, the root solution was then poured through sieves (60 count sieve on top, 500 count sieve on the bottom). The crude egg collection was collected from the bottom of the 500 count sieve into 5 mL each of bleach and egg mixture in 15 mL Falcon tubes. 5 mL of 70% sucrose solution was then placed in each Falcon tube. A 1 mL layer of double distilled sterile water was then gently placed on top of the sucrose mixtures in each Falcon tube. The samples were then centrifuged for 5 minutes at 1200 rpm. The embryos that were suspended between the sucrose solution and the 1 mL water layer were collected in a total of 3 mL (top layer of 3 mL of the solution) from each Falcon tube into fresh 15 mL Falcon tubes. 10 mL of a 5% bleach solution was added and the eggs were vortexed for 10 minutes. The Falcon tubes were then centrifuged for 5 minutes at 2000 rpm. The supernatant was then removed, and the eggs were rinsed in 10 mL of sterile double distilled water and re-centrifuged for 5 minutes at 2000 rpm. This process was repeated two more times. After the last wash, 5 mL of supernatant was removed, while the remaining 5 mL of water was mixed with the eggs and placed into a 5 mL Petri dish. The eggs were then placed in an incubator at 25-27° C., and juvenile worms (J2 stage) hatched after about 10 days. The worms were kept in a 25-27° C. incubator for storage.
The bioassay is designed to test the ability of the mixture of peptides and chalcone to prevent egg hatching (% unhatched eggs). Each test was performed in a 96-well plate with 10 eggs per well. The eggs were incubated in each treatment for 16 days. Hatched vs unhatched eggs were determined by microscopic images.
(§3) As described earlier, equal number nematodes were incubated in various treatment solutions in a 96-well plate for 5 days and the potency of different combination of nematicides was tested by counting the number of nematodes dead or surviving on Day 5. Similarly, the effect of different combination of nematicide composition on hatching of nematode eggs was also counted.

Test [2] relates to J2 M. incognita. As to the kind of experiment: Bioassay for killing J2 juvenile nematodes (% mortality), 96-well plate, 5 days. It is filed as in vivo, Meloidogyne incognita. Conditions: for effectiveness in killing juvenile nematodes: peptide alone (0.8 mg/ml where stated), Day 5.
Source text: as §1
as §2, with “The eggs were then placed in an incubator at 25-27° C., and juvenile worms (J2 stage) hatched after about 10 days. The worms were kept in a 25-27° C. incubator for storage.” left out
as §3

Test [3] concerns nematodes. Conditions: cited from earlier work; for effective concentration for nematicidal activity: peptide alone; for nematicidal activity: peptide individually, 1 mg/ml.

As to `O=C(/C=C/c1ccccc1)c1ccc(Cl)cc1Cl` [chalcone 17, (2E)-1-(2,4-Dichlorophenyl)-3-phenyl-2-propen-1-one], the “hatched eggs by Day 16” value in test [1] (chalcone alone, 10^−4-10^−5 M) is listed as roughly 50%.

For `CCOc1ccc(C(=O)/C=C/c2ccccc2)cc1` [chalcone 25, (2E)-1-(4-Ethoxyphenyl)-3-phenyl-2-propen-1-one], the “hatched eggs by Day 16” value in test [1] (chalcone alone, 10^−4-10^−5 M) is roughly 50%.

With “Peptide 2: 15 amino acids DLLRPVVIAPQFSRQ (99-113 amino acid stretch of CED-4 protein, SEQ ID NO. 2) (Caenorhabditis elegans)”, the “death of juvenile nematodes on Day 5” value in test [2] (peptide alone, 0.8 mg/ml) was 60-80%. Further, in test [1] (peptide alone, 0.8 mg/ml), the “hatched eggs by Day 16” value was “around 30%”. In test [3], the “effective concentration for nematicidal activity” value (shortened to “effective concentration”) is “about 1 mg/ml” and the nematicidal activity is given as 100%.

With “Peptide 3: 19 amino acids RQMLDRKLLLGNVPKQMTC (112-130 amino acid stretch of CED-4 protein, SEQ ID NO. 3) (Caenorhabditis elegans)”, the “effectiveness in killing juvenile nematodes” value in test [2] is recorded as “less effective”. Besides, in test [1] (peptide alone, 0.8 mg/ml), the “hatched eggs by Day 16” value was “around 10%”. Besides, in test [3], the “effective concentration” value was “about 1 mg/ml” and the nematicidal activity is 100%.

On to “Peptide 12: 12 amino acids FPKFMQLHQKFY (529-540 amino acid stretch of CED-4 protein, SEQ ID NO. 4) (Caenorhabditis elegans)”, for which the “effectiveness in killing juvenile nematodes” value in test [2] was “highly effective”. Moreover, in test [1] (peptide alone, 0.8 mg/ml), the “hatched eggs by Day 16” value was “around 20%”. Moreover, in test [3], the “effective concentration” value was “about 1 mg/ml” and the nematicidal activity is listed as 100%.
